Data reported in US8030487B2, “2-amino—5-substituted pyrimidine inhibitors” (TargeGen, Inc., priority 2006, dated 2011).

Tests used:
Lck = target: T1, Lck (Homo sapiens, UniProt P06239); assay: Lck kinase inhibition (KinaseGlo); format: biochemical
T1 construct: purchased Panvera/Invitrogen
Experimental: (§1) The ability of compounds of the present invention to inhibit the activity of various groups of kinases was tested. Kinases that were tested are described below. All kinase reactions were conducted in 96-well plates with a final reaction volume of 50 μl.
(§2) Recombinant human c-Src or Yes, or Fyn, or Lck (28 ng/well, Panvera/Invitrogen, Madison Wis.), ATP (3 μM), a tyrosine kinase substrate (PTK2, 250 μM, Promega Corp., Madison Wis.), and test agents (at concentrations ranging from about 1 nM/l to about 100 μM/l), in the presence of Src kinase reaction buffer (Upstate USA, Lake Placid N.Y.). After reacting for about 90 minutes at room temperature, residual ATP was determined using a luciferase-based assay (KinaseGlo, Promega Corp.) as a measure of kinase activity. Data from four wells were then averaged and used to determine IC50 values for the test compounds (Prism software package, GraphPad Software, San Diego Calif.).

EGFR = target: T2, EGFR (Homo sapiens, UniProt P00533); assay: EGFR kinase inhibition (residual ATP); format: biochemical; conditions: 2.5 uM ATP, 60 min 37° C.
T2 construct: purchased Panvera/Invitrogen
Experimental: as §1
EGFR and VEGFR2 kinase assays were similarly performed. EGFR (76 ng/well, Panvera/Invitrogen) was combined with 12.5 mg/ml poly(glu4tyr) (Sigma) and 2.5 uM ATP. VEGFR2 (14.1 U/well, Cell Signaling/ProQinase) was used with 0.3 mg/ml poly(glu4tyr) and 1.5 uM ATP. Both were incubated for 60 minutes at 37° C., and the residual ATP was measured via luminescence, per the procedure described above.

Yes = target: T3, Yes (Homo sapiens, UniProt P07947); assay: Yes kinase inhibition (KinaseGlo); format: biochemical
T3 construct: purchased Panvera/Invitrogen
Experimental: as §1, §2

Abl = Abl (Homo sapiens, UniProt P00519); assay: Abl kinase inhibition; format: biochemical
Experimental: as §1
Src Family of Kinases, abl, and Ret
as §2

[1] = system: retinal edema induced by retinal ischemia; assay: Retinal edema (Method #1), induced by retinal ischemia; format: in vivo, rat; conditions: LE rats, 1% solution, topical bid × 5, retinal vein thrombosis; vehicle 5.2
Experimental: Retinal Edema (Method #1) Retinal edema was induced in rats by retinal ischemia. LE rats were injected i.v. with the photosensitizing dye Rose Bengal, followed by laser stimulation of a single retinal vein (in the right eye only) so as to induce thrombosis and thus retinal ischemia. Animals were dosed topically with either test compound or vehicle (10 μL eyedrops twice per day bilaterally) for a total of 5 dosings. Retinal edema was then measured by injecting animals i.p. with sodium fluorescein followed 45 later by ocular fluorophotometry to detect fluorescein leakage into the retina and vitreous chamber. An Edema Index (EI) was calculated according to the following formula: EI=(Fod−Fos)/Fos, where Fod=AUC value for fluorescence in the right eye, and Fos=AUC value for fluorescence in the left (treated but not thrombosed) eye.

[2] = system: retinal edema induced by intravitreal injection of VEGF; assay: Retinal edema (Method #2), induced by intravitreal VEGF; format: in vivo, rat; conditions: LE rats, 1% solution topical, vehicle 0.363
Experimental: Retinal Edema (Method #2) Retinal edema was induced in rats by intravitreal injection of vascular endothelial growth factor (VEGF). LE rats were dosed topically (bilaterally) with either test compound or vehicle (10 μL eyedrops), followed by intravitreal injections of either saline (left eye) or VEGF (right eye). Five hours later, animals were again dosed topically with test compound or vehicle, and then injected i.p. with sodium fluorescein followed 45 later by ocular fluorophotometry to detect fluorescein leakage into the retina and vitreous chamber. EI was calculated according to the following formula: EI=(Fod−Fos)/Fos, where Fod=AUC value for fluorescence in the right eye, and Fos=AUC value for fluorescence in the left (saline injected) eye.

[3] = system: choroidal neovascularization; assay: Choroidal neovascularization induced by laser injury; format: in vivo, mouse; conditions: C57BL/6 mice, 1% solution topical twice per day, 14 days; vehicle 16,192
Experimental: Choroidal Neovascularization Choroidal neovasculariztion was induced in mice by laser injury. Laser photocoagulation was performed on the choroids of C57BL/6 mice, after which mice were dosed topically with test compound or vehicle for a total of 14 days (10 μL applied per eye twice per day). At the end of the 2 week dosing period, mice were perfused with fluorescein-labeled dextran (2×10^6 average molecular weight), eyes were removed and fixed in formalin, and choroidal flatmounts prepared. Laser injury sites were photographed by fluorescence microscopy and digital images were used to quantify the area of choroidal neovascularization.

[4] = system: retinal neovascularization; assay: Retinal neovascularization, normoxia-hyperoxia-normoxia mouse pups; format: in vivo; conditions: C57BL/6 mouse pups
Experimental: Retinal Neovascularization Retinal neovascularization was induced in mouse pups by cyclic exposure to normoxia-hyperoxia-normoxia. C57BL/6 mouse pups were exposed to hyperoxia (75% O2 environment) for 5 days starting at from postnatal day 7, then returned to a normoxic environment. Dosing was also initiated at this time (bilateral topical application of test compound or vehicle as a 10 μL eyedrops twice per day). After 5 days of dosing, retinal wholemounts were prepared and stained with a fluorescently labeled lectin that specifically stains murine endothelium. Digital images were captured by fluorescence microscopy and used to quantify total vascular area.

[5] = system: human retinal micro vascular endothelial cells (hRMVEC); assay: Cellular data using hRMVEC; format: cell-based; conditions: Endothelial cell

T3 sequence (P07947 whole entry): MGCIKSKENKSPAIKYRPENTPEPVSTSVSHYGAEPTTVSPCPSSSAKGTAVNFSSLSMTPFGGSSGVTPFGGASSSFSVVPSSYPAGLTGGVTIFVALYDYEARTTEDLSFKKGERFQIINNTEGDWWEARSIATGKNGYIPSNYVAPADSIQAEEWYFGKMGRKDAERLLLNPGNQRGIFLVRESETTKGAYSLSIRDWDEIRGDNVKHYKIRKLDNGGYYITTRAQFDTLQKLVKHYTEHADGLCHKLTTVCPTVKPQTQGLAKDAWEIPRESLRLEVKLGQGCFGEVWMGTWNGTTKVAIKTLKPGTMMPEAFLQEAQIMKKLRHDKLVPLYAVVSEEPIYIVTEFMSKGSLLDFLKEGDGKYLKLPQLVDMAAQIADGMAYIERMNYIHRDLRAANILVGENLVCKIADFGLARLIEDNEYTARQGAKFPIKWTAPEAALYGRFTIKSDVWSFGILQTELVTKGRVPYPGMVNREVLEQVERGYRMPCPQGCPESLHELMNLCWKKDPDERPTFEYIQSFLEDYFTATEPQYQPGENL
T1 sequence (P06239 whole entry): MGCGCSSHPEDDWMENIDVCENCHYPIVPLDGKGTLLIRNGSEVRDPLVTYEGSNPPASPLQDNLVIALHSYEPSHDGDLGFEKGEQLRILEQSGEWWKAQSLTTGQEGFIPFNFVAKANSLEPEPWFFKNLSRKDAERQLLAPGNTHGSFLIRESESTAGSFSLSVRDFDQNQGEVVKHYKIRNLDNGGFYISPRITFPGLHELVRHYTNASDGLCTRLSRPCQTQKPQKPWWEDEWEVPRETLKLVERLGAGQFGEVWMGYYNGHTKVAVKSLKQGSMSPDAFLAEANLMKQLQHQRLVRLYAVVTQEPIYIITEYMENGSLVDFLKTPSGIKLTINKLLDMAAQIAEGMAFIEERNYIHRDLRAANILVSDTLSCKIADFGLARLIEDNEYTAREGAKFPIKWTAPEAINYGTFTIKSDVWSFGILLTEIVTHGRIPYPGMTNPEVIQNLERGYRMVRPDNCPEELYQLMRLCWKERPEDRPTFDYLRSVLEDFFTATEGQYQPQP
T2 sequence (P00533 25-1210, species assumed): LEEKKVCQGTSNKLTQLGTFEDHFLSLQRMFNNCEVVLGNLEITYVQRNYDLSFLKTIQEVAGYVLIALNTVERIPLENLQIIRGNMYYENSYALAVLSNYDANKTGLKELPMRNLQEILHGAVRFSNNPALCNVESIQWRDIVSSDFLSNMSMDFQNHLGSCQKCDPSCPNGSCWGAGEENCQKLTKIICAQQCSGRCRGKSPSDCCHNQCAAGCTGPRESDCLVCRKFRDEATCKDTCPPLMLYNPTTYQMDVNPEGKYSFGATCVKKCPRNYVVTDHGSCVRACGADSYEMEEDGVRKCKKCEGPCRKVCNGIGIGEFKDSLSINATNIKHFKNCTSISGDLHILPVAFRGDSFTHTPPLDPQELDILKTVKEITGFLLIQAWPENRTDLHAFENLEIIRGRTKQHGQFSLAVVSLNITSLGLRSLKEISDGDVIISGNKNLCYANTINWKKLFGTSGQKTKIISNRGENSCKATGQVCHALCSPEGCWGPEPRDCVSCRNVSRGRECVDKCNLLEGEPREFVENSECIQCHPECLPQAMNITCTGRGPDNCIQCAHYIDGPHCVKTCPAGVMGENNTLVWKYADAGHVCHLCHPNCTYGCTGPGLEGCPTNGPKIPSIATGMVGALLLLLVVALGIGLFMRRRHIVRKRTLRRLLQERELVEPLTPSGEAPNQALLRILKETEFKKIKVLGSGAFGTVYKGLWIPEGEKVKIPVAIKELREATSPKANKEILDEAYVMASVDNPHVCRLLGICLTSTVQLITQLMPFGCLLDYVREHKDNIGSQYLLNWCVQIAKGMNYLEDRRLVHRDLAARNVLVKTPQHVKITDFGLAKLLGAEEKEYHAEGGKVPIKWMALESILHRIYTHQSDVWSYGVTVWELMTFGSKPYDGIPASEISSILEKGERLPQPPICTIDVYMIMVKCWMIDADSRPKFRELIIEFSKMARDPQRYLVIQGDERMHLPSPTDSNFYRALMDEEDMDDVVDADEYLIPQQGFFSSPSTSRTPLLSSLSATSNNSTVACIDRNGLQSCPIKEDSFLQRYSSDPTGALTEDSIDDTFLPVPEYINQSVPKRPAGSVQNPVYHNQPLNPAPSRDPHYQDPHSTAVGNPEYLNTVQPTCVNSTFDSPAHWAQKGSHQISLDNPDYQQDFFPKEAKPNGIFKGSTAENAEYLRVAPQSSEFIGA
Abl, sequence (P00519 whole entry, species assumed): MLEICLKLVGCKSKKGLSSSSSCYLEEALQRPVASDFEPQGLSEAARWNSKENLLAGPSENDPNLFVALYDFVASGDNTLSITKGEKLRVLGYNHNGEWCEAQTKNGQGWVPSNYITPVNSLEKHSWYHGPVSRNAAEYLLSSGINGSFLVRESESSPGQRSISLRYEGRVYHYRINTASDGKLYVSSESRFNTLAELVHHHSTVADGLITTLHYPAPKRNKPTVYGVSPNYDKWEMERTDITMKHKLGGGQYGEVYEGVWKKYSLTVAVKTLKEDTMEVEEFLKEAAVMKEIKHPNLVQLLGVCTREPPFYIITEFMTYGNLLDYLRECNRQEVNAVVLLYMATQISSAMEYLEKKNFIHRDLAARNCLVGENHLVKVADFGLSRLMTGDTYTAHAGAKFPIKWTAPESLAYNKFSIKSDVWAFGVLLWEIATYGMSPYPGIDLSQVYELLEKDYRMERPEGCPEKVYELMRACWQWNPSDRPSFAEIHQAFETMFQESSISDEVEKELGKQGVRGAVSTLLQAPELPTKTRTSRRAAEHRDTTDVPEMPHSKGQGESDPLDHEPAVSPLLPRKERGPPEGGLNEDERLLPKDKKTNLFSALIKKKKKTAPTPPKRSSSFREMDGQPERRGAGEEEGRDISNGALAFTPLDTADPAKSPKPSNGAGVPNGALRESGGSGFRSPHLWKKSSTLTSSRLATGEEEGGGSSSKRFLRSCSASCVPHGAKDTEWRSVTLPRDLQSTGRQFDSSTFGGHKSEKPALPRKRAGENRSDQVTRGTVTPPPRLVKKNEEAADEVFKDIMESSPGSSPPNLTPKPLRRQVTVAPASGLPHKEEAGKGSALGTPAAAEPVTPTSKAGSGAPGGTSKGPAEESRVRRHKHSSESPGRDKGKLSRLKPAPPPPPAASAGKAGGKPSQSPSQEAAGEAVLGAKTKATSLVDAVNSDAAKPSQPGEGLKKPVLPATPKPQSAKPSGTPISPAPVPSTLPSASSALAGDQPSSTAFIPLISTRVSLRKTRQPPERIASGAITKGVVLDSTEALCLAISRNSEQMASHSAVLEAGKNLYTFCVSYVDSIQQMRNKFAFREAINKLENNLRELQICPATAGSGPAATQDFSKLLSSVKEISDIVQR

SMILES	IC50 (Lck)	IC50 (Yes)	IC50 (Abl)	EC50 [5]	also measured
O=C(Nc1cccc(C(F)(F)F)c1)Nc1ccc(Cl)c(C(=O)Nc2cnc(Nc3ccc(OCCN4CCCC4)cc3)nc2)c1 [drawing 237]	22.4 nM	2.5 nM	–	–	IC50 (EGFR): 558 nM
O=C(Nc1ccc(Cl)c(C(=O)Nc2cnc(Nc3ccc(S(=O)(=O)C4CCNCC4)cc3)nc2)c1)c1cccc(C(F)(F)F)c1 [drawing 228]	4.5 nM	0.9 nM	0.2 nM	–	–
Cc1ccc(Nc2nccc3ccccc23)cc1C(=O)Nc1cnc(Nc2cccc(OCCN3CCCC3)c2)nc1 [drawing 236]	309 nM	22.2 nM	–	–	–
O=C(Nc1ccc(Cl)c(C(=O)Nc2cnc(Nc3ccc(CCCN4CCCC4)cc3)nc2)c1)c1cccc(C(F)(F)F)c1 [drawing 231]	–	–	3.8 nM	–	–
O=C(Nc1ccc(Cl)c(C(=O)Nc2cnc(Nc3ccc(OCCN4CCCC4)cc3)nc2)c1)c1cccc(C(F)(F)F)c1 [Compound XL, 2-Chloro-N-{2-[4-(2-Pyrrolidin-1-yl-ethoxy)-Phenylamino]-Pyrimidin-5-yl}-5-(3-Trifluoromethyl-Benzoylamino)-Benzamide]	–	–	–	–	Edema Index [1]: 2.3; EI [2]: 0.110; Area (μm^2) of choroidal neovascularization [3]: 9,388 μm^2; reduction in retinal vascularization compared to vehicle ([4]; 0.1% solution, twice per day, 5 days, P=0.009): 29%; % Reduction vs. Vehicle (retinal vascularization) ([4]; 1% of compound XL (table), topical bid × 5): 29%; Area (mm^2), total retinal vascular area ([4]; 1% of compound XL (table), topical bid × 5, vehicle 8.269): 6.429 mm^2
O=C(Nc1ccc(Cl)c(C(=O)Nc2cnc(Nc3ccc(S(=O)(=O)C4CCNCC4)cc3)nc2)c1)c1cccc(C(F)(F)F)c1 [drawing 239]	–	–	–	1150 nM	–
O=C(Nc1ccc(Cl)c(C(=O)Nc2cnc(Nc3ccc(CCCN4CCCC4)cc3)nc2)c1)c1cccc(C(F)(F)F)c1 [drawing 233]	–	–	–	–	IC50 (EGFR): 124 nM
O=C(Nc1ccc(Cl)c(C(=O)Nc2cnc(Nc3cccnc3)nc2)c1)c1cccc(C(F)(F)F)c1 [drawing 243]	–	–	–	68 nM	–
O=C(Nc1ccc(Cl)c(C(=O)Nc2cnc(Nc3ccccc3)nc2)c1)c1cccc(C(F)(F)F)c1 [drawing 234]	32.2 nM	4.2 nM	–	–	–

The next lines start with results.

IC50 (Lck)	IC50 (Yes)	IC50 (Abl)	EC50 [5]	SMILES	also measured
5.1 nM	1.3 nM	5.5 nM	–	Cc1ccc(NC(=O)c2cccc(C(F)(F)F)c2)cc1C(=O)Nc1cnc(Nc2ccc(OCCN3CCCC3)cc2)nc1 [drawing 229]	–
2.2 nM	0.46 nM	1.8 nM	–	O=C(Nc1ccc(Cl)c(C(=O)Nc2cnc(Nc3ccc(OCCN4CCCC4)cc3)nc2)c1)c1cccc(C(F)(F)F)c1 [drawing 230]	IC50 (EGFR): 98 nM
3.8 nM	0.93 nM	–	–	Cc1ccc(NC(=O)c2cccc(C(F)(F)F)c2)cc1C(=O)Nc1cnc(Nc2cccc(OCCN3CCCC3)c2)nc1 [drawing 226]	–
–	–	–	69 nM	O=C(Nc1ccc(Cl)c(C(=O)Nc2cnc(Nc3cccc(OCCN4CCCC4)c3)nc2)c1)c1cccc(C(F)(F)F)c1 [drawing 238]	–
1.7 nM	0.52 nM	1.1 nM	–	O=C(Nc1ccc(Cl)c(C(=O)Nc2cnc(Nc3cccc(OCCN4CCCC4)c3)nc2)c1)c1cccc(C(F)(F)F)c1 [drawing 225]	–
–	–	154 nM	–	O=C(Nc1cnc(Nc2cccc(OCCN3CCCC3)c2)nc1)c1cc(NC(=O)C(F)(F)F)ccc1Cl [drawing 227]	–
–	–	–	41 nM	O=C(Nc1ccc(Cl)c(C(=O)Nc2cnc(Nc3ccc(CCCN4CCCC4)cc3)nc2)c1)c1cccc(C(F)(F)F)c1 [drawing 242]	–
–	–	–	30 nM	O=C(Nc1ccc(Cl)c(C(=O)Nc2cnc(Nc3ccc(OCCN4CCCC4)cc3)nc2)c1)c1cccc(C(F)(F)F)c1 [drawing 241]	–
–	–	126 nM	–	Cc1ccc(NC(=O)C(F)(F)F)cc1C(=O)Nc1cnc(Nc2cccc(OCCN3CCCC3)c2)nc1 [drawing 232]	–
–	–	–	199 nM	Cc1ccc(NC(=O)c2cccc(C(F)(F)F)c2)cc1C(=O)Nc1cnc(Nc2ccc(OCCN3CCCC3)cc2)nc1 [drawing 240]	–
